Data as given in US10647680B2, “Urea compound, preparation method therefor and medical use thereof” (Ancureall Pharmaceutical (Shanghai) Co., Ltd., priority 2016, dated 2020).

How the values were obtained:
[1] = tested on: NCI-H1975 (EGFR L858R/T790M); assay: In vitro growth inhibition (GI50), NCI-H1975; assay type: cell-based; conditions: Homo sapiens
Source text: Tumor cell line is an effective cell model for studying the inhibition of tumor cell growth or proliferation in vitro. In the present invention, a representative tumor cell line was selected to determine the cell growth inhibition activity of the present compound. All cell lines used were from ATCC, DSMZ, and the Cell Bank of the Chinese Academy of Sciences. Cell culture conditions and methods were in accordance with the requirements of each cell line. Cells were subcultured in vitro for no more than 3 passages each time, and as required, single-clone purification and identification of cell lines could be carried out.
The cell culture media used were RPMI1640 (Gibco), MEM (Gibco), McCOY'S5A (Gibco), and IMDM (Gibco). The complete medium was prepared by supplement with 5˜20% fetal calf serum (Gibco), 1% double-antibiotics (10000 units/mL penicillin and 10000 units/mL), 2 mM glutamine or 1 mM sodium pyruvate, respectively.
Human epidermal cancer cell line A431 (EGFR WT, amplification and high expression, from Shanghai Cell Bank of Chinese Academy of Sciences and ATCC), human lung cancer cell line NCI-H292 (EGFR WT, purchased from Shanghai Cell Bank of Chinese Academy of Sciences), NSCLC cell lines PC-9 and HCC827 (EGFR exon19 E746-A750 deletion, two cell lines are sensitive to the first-generation EGFR PTK inhibitor), NSCLC cell line NCI-H1975 (EGFR L858R/T790M and the first-generation EGFR inhibitor resistance, ATCC) were cultured with 1×RPMI1640 complete medium (supplement with 10% FBS), respectively.
Adherent cells were digested with 0.25% pancreatin-EDTA (Gibco). The suspension cells were collected by centrifugation. The supernatant was discarded and the cell pellet was resuspended and counted. Different cell concentrations (5˜10×10^4 cells/mL) were prepared according to the growth cycle of each cell line and then seeded on a 96-well plate (Corning), 100 μL/well. The cells were incubated overnight at 37° C., 5% CO2. The compounds were added to the cells on the second day with 2 wells in parallel. The final concentration of organic solvent shall not exceed 1%. The cells were continually incubated for 3 to 5 days, and then subjected to MTT assay.
The compound of the present invention and the control compound were dissolved in DMSO (Sigma) respectively, with the purity of more than 98%. The compound was stored in a concentration of 10 mM at −20° C. and diluted to 2- or 10-fold series prior to use.
Dojindo CCK8 reagent kit was used as MTT assay. THERMO […] FC meter was used as microplate reader.
For adherent cells, culture medium was removed and immediately replaced with the fresh prepared medium which contains 10% CCK8 reagent (100 μL/well). For the suspension cells, CCK8 was directly added to 10% of the final concentration. The cells were continually incubated for 1˜4 h. When a dark yellow color could be observed in the solvent control wells, the absorbance value at OD450 nm was measured and the cell growth rate was calculated according to the following formula: Cell Growth Rate (%)=100*(T−T0)/(C−T0) T=optical density of drug treatment cell well—optical density of blank control well; T0=optical density of cell well before drug treatment—optical density of blank control well; C=optical density of cell well of solvent control group—optical density of blank control well. The concentration value of 50% inhibition of cell growth (GI50) was calculated according to the drug concentration and cell growth rate curve. The experiment was independently repeated 1˜3 times, and subject to biological statistical analysis. 4. Experimental Results
Tumor cell growth inhibition test was performed by selecting representative compounds (compounds 4, 11, 12, 16, 27, 68, 71, 77, 79, 89 and 116 of the present invention). The initial concentration of the compound was 5,000 nM, then it was serially diluted by 2-fold or 10-fold to 0.01 nM. The GI50 value of each test compound was calculated according to the GI50 assay and calculation method. […]

[2] = tested on: MOLM-13 (FLT3 ITD+/− mutant type); assay: In vitro growth inhibition (GI50), MOLM-13; assay type: cell-based, human; conditions: for GI50: Homo sapiens, MOLM-13, Cell lines of leukemia, read-out: GI 50 MOLM-13 FLT3 (ITD+/−); for inhibition activity against the growth of MOLM-13 cells compared with AC220: compared with the control compound AC220

SMILES | GI50 [1] [nM] | GI50 [2] [nM] | inhibition activity against the growth of MOLM-13 cells compared with AC220 [2]
CC(C)(C)c1cc(NC(=O)Nc2ccc(-n3cnc4cc(O)ccc43)cc2)no1 [Compound 4, 1-(5-tert-butyl-isoxazol-3-yl)-3-[4-(5-hydroxy-benzimidazol-1-yl)-phenyl]-urea] | > 2500 | 0.1 to 1 | –
CC(C)(C)c1cc(NC(=O)Nc2ccc(-n3cnc4cc(OCCO)ccc43)cc2)no1 [Compound 11, 1-(5-tert-butyl-isoxazol-3-yl)-3-{4-[5-(2-hydroxy-ethoxyl)-benzimidazol-1-yl]-phenyl]-urea] | > 2500 | 0.01 to 0.1 | stronger inhibition activity
CC(C)(C)c1cc(NC(=O)Nc2ccc(-n3cnc4cc(OCCN5CCOCC5)ccc43)cc2)no1 [Compound 16, 1-(5-tert-butyl-isoxazol-3-yl)-3-{4-[5-(2-morpholin-4-yl-ethoxyl)-benzimidazol-1-yl]-phenyl}-urea] | > 2500 | 0.1 to 1 | –
CC(C)(C)c1cc(NC(=O)Nc2ccc(-n3cnc4ccc(OCCN5CCOCC5)cc43)cc2)no1 [Compound 27, 1-(5-tert-butyl-isoxazol-3-yl)-3-{4-[6-(2morpholin-4-yl-ethoxyl)-benzimidazol-1-yl]-phenyl}-urea] | > 2500 | 0.1 to 1 | –
COCCOc1ccc2c(c1)ncn2-c1ccc(NC(=O)Nc2cc(C(C)(C)C)n[nH]2)cc1 [Compound 77, 1-(5-tert-butyl-2H-pyrazol-3-yl)-3-{4-[5-(2-methoxyl-ethoxyl)-benzimidazol-1-yl]-phenyl}-urea] | > 2500 | 0.01 to 0.1 | stronger inhibition activity

Continued, in another order:

GI50 [1] [nM] | GI50 [2] [nM] | SMILES | inhibition activity against the growth of MOLM-13 cells compared with AC220 [2]
> 2500 | 0.1 to 1 | CC(C)(C)c1cc(NC(=O)Nc2ccc(-n3cnc4ccccc43)cc2)[nH]n1 [Compound 68, 1-(4-benzimidazol-1-yl-phenyl)-3-(5-tert-butyl-2H-pyrazol-3-yl)-urea] | –
> 2500 | 0.01 to 0.1 | COc1ccc2c(c1)ncn2-c1ccc(NC(=O)Nc2cc(C(C)(C)C)n[nH]2)cc1 [Compound 71, 1-(5-tert-butyl-2H-pyrazol-3-yl)-3-[4-(5-methoxyl-benzimidazol-1-yl)-phenyl]-urea] | stronger inhibition activity
> 2500 | 0.1 to 1 | CC(C)(C)c1cc(NC(=O)Nc2ccc(-n3cnc4cc(OCCO)ccc43)cc2)[nH]n1 [Compound 79, 1-(5-tert-butyl-2H-pyrazol-3-yl)-3-{4-[5-(2-hydroxy-ethoxyl)-benzimidazol-1-yl]-phenyl]urea] | stronger inhibition activity
> 2500 | 0.1 to 1 | CC(C)(C)c1cc(NC(=O)Nc2ccc(-n3cnc4cc(OCCN5CCOCC5)ccc43)cc2)[nH]n1 [Compound 89, 1-(5-tert-butyl-2H-pyrazol-3-yl)-3-{4-[5-(2-morpholin-4-yl-ethoxyl)-benzimidazol-1-yl]-phenyl}-urea] | stronger inhibition activity
> 2500 | 10 to 100 | CC(C)(C)c1cc(N)n(C(=O)Nc2ccc(-n3cnc4ccccc43)cc2)n1 [Compound 116, 5-amino-3-tert-butyl-pyrazol-1-carboxylic acid (4-benzimidazol-1-yl-phenyl)-amide] | –
